Experimental data reported in paper PMC12040169 (PLOS Biology, 2025).
Values after ≈ are worked out from the molar mass of the structure shown. Read-outs that look alike come from different tables or passages of the source.

How the values were obtained:
C. albicans = system: T1, C. albicans; test: microbe, parasite or virus in culture; design: Microbial growth in liquid dilution assay, OD600 relative to DMSO control; details: Candida albicans, read-out: C. albicans, IC50 (µM) estimate
T1 construct: DSM 1577

L. crispatus = system: T2, L. crispatus; test: microbe, parasite or virus in culture; design: Microbial growth in liquid dilution assay, OD600 relative to DMSO control; details: Lactobacillus crispatus; estimated IC50; read-out: L. crispatus, IC50 (µM) estimate
T2 construct: DSM 20584

[1] = system: T3, CTL2-GFP (C. trachomatis L2/434/Bu, GFP-expressing); test: microbe, parasite or virus in culture; design: species or system HeLa; C. trachomatis growth in HeLa, dose-response, mean of bulk GFP fluorescence and imaged total inclusion area; details: Chlamydia trachomatis, 28.5 h; mean of GFP and inclusion area
T3 construct: L2/434/Bu, GFP-expressing
Procedure, shortened: (§1)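 GFP/resorufin bulk fluorescence read → fix → Hoechst stain → high-content imaging. Inclusion total area + count = growth proxy; nuclei count = host viability proxy. MIC calc per earlier method.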

L. iners = system: T4, L. iners; test: organism not typed; design: Microbial growth in liquid dilution assay, OD600 relative to DMSO control; details: estimated IC50; read-out: L. iners, IC50 (µM) estimate
T4 construct: DSM 13335

in vitro [2] = test: in vitro; design: Viability of infected HeLa host cells, resazurin conversion, bulk resorufin fluorescence relative to DMSO; details: human, hela cells; bulk resorufin, mean of 3
B. thetaiotaomicron = system: T5, B. thetaiotaomicron; test: microbe, parasite or virus in culture; design: Microbial growth in liquid dilution assay, OD600 relative to DMSO control; details: Bacteroides thetaiotaomicron; estimated IC50; read-out: B. thetaiotaomicron, IC50 (µM) estimate
T5 construct: DSM 2079
Procedure, shortened: (§2)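 Compounds are added to commensal bacterial cultures in a dilution assay, with 30 µM among the concentrations used. Growth inhibition is then scored.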

B. adolescentis = system: T6, B. adolescentis; test: microbe, parasite or virus in culture; design: Microbial growth in liquid dilution assay, OD600 relative to DMSO control; details: Bifidobacterium adolescentis; estimated IC50; read-out: B. adolescentis, IC50 (µM) estimate
T6 construct: DSM 20083
Procedure, shortened: as §2

E. faecalis = system: T7, E. faecalis; test: microbe, parasite or virus in culture; design: Microbial growth in liquid dilution assay, OD600 relative to DMSO control; details: Enterococcus faecalis; estimated IC50; read-out: E. faecalis, IC50 (µM) estimate
T7 construct: DSM 20478
Procedure, shortened: as §2

E. coli = system: T8, E. coli; test: microbe, parasite or virus in culture; design: Microbial growth in liquid dilution assay, OD600 relative to DMSO control; details: Escherichia coli; estimated IC50; read-out: E. coli, IC50 (µM) estimate
T8 construct: DSM 301
Procedure, shortened: as §2

L. reuteri = system: T9, L. reuteri; test: microbe, parasite or virus in culture; design: Microbial growth in liquid dilution assay, OD600 relative to DMSO control; details: Limosilactobacillus reuteri; estimated IC50; read-out: L. reuteri, IC50 (µM) estimate
T9 construct: DSM 20016
Procedure, shortened: as §2

[3] = system: T3, CTL2-GFP (C. trachomatis L2/434/Bu, GFP-expressing); test: microbe, parasite or virus in culture; design: C. trachomatis growth in HeLa, dose-response, mean of bulk GFP fluorescence and imaged total inclusion area; details: Chlamydia trachomatis, HeLa, 28.5 h; mean of GFP and inclusion area
Procedure, shortened: as §1

G. vaginalis = system: T10, G. vaginalis; test: microbe, parasite or virus in culture; design: Microbial growth in liquid dilution assay, OD600 relative to DMSO control; details: Gardnerella vaginalis, read-out: G. vaginalis, IC50 (µM) estimate
T10 construct: DSM 4944

[4] = system: T3, CTL2-GFP (C. trachomatis L2/434/Bu, GFP-expressing); test: microbe, parasite or virus in culture; design: Intracellular C. trachomatis growth in HeLa cells, bulk GFP fluorescence relative to DMSO; details: Chlamydia trachomatis, HeLa, 28.5 h; bulk GFP
Procedure: (§3) MICs were calculated as described above.

[5] = system: T3, CTL2-GFP (C. trachomatis L2/434/Bu, GFP-expressing); test: microbe, parasite or virus in culture; design: species or system HeLa; Intracellular C. trachomatis growth in HeLa cells, bulk GFP fluorescence relative to DMSO; details: Chlamydia trachomatis, 28.5 h; bulk GFP
Procedure: as §3

in vitro [6] = test: in vitro; design: Viability of infected HeLa host cells, resazurin conversion, bulk resorufin fluorescence relative to DMSO; details: human, hela cells; bulk resorufin, single well
[7] = system: T11, C. trachomatis L2/434/Bu expressing GFP (CTL2-GFP); test: microbe, parasite or virus in culture; design: C. trachomatis total inclusion area by high-content imaging, normalised to DMSO; details: Chlamydia trachomatis, HeLa, 28.5 h; read-out: IC50 (µM), total inclusion area
T11 construct: L2/434/Bu GFP intracellular growth in HeLa cells
Procedure, shortened: as §1

[8] = system: T11, C. trachomatis L2/434/Bu expressing GFP (CTL2-GFP); test: microbe, parasite or virus in culture; design: C. trachomatis GFP growth in infected HeLa cells, bulk GFP fluorescence normalised to DMSO; details: Chlamydia trachomatis, HeLa, 26 h; read-out: IC50 (µM), bulk GFP fluorescence
Procedure: as §3

## O=C(CC1CCN(CCc2ccccc2)CC1)Nc1cccc(-n2cccn2)c1 [c4e]
C. albicans
  IC50: > 30 µM
L. crispatus
  IC50: > 30 µM
[1]
  MIC: 1.56 µM (≈ 0.605 µg/mL)
L. iners
  IC50: > 30 µM
In vitro [2]
  viability at 28.5 h, 0.000416667 µM: 92.2%
  viability at 28.5 h, 0.00125 µM: 95.9%
  viability at 28.5 h, 0.00375 µM: 89.2%
  viability at 28.5 h, 0.0123333 µM: 92.7%
  viability at 28.5 h, 0.037 µM: 90.6%
  viability at 28.5 h, 0.111 µM: 94.2%
  viability at 28.5 h, 0.333 µM: 86.2%
  viability at 28.5 h, 1 µM: 89.9%
  viability at 28.5 h, 3 µM: 82.9%
  viability at 28.5 h, 10 µM: 88.5%
  viability at 28.5 h, 30 µM: 87.2%
B. thetaiotaomicron
  IC50: > 30 µM
B. adolescentis
  IC50: > 30 µM
E. faecalis
  IC50: > 30 µM
E. coli
  IC50: > 30 µM
L. reuteri
  IC50: > 30 µM
[3]
  IC50: 0.332 µM
G. vaginalis
  IC50: > 30 µM

## CCc1cccc(OCC(=O)Nc2ccc(S(=O)(=O)Nc3onc(C)c3C)cc2)c1 [c2v]
[4]
  IC50: 0.471 µM
C. albicans
  IC50: > 30 µM
L. crispatus
  IC50: > 30 µM
L. iners
  IC50: > 30 µM
B. thetaiotaomicron
  IC50: > 30 µM
B. adolescentis
  IC50: > 30 µM
E. faecalis
  IC50: > 30 µM
E. coli
  IC50: > 30 µM
L. reuteri
  IC50: > 30 µM
G. vaginalis
  IC50: > 30 µM
[5]
  MIC: 0.693 µM (≈ 0.298 µg/mL)

## CCOC(=O)CC(C)(O)P(=O)(OC)OC (stereo not shown) [CBK261287]
In vitro [6]
  viability at 28.5 h, 10 µM: 101%

## S=P(Oc1ccccc1)(Oc1ccccc1)Oc1ccccc1 [CBK260987]
In vitro [6]
  viability at 28.5 h, 10 µM: 87.5%

## O=C(NN=Cc1ccc([N+](=O)[O-])o1)c1nc(-c2ccccc2)cc(-c2ccccc2)n1 [c3e]
[7]
  IC50: 0.133 µM
[8]
  IC50: 0.118 µM
